# Data published in US8119159B2, “Solid oral dosage form containing an enhancer” (Merrion Research III Limited, priority 1999, dated 2012).
# What was measured:
# in vivo = assay: in vivo
# Experimental: Beagle dogs (10-15 Kg) were sedated with medetomidine (80 μg/kg) and an endoscope was inserted via the mouth, esophagus and stomach into the duodenum. The test solutions (10 ml), comprising leuprolide acetate (Mallinckrodt Inc, St. Louis, Mo.) with or without enhancer reconstituted in deionized water were administered intraduodenally via the endoscope. Following removal of the endoscope, sedation was reversed using atipamezole (400 μg/kg). The parenteral reference solutions comprising 1 mg Leuprolide reconstituted in 0.5 ml sterile water were administered intravenously and subcutaneously respectively.
# Caco-2 monolayers [1] = assay: 3H-TRH apical to basolateral transport (Papp) across Caco-2 monolayers; format: in vitro ADME; settings: sodium salts at the concentrations of Table 1
# Experimental: (§1) Cell Culture: Caco-2 cells were cultured in Dulbecco's Modified Eagles Medium (DMEM) 4.5 g/L glucose supplemented with 1% (v/v) non-essential amino acids; 10% fetal calf serum and 1% penicillin/streptomycin. […] The cells were grown and expanded in standard tissue culture flasks and were passaged once they attained 100% confluence. The Caco-2 cells were then seeded on polycarbonate filter inserts (Costar; 12 mm diameter, 0.4 μm pore size) at a density of 5×10^5 cells/cm^2 and incubated in six well culture plates with a medium change every second day. Confluent monolayers between day 20 and day 30 seeding on filters and at passages 30-40 were used throughout these studies.
# (§2) Transepithelial Transport Studies: The effects of sodium salts of various MCFAs on the transport of ^3H-TRH (apical to basolateral flux) was examined as follows: 15.0 μCi/ml (0.2 μM) ^3H-TRH was added apically at time zero for TRH flux experiments. The transport experiments were performed in Hank's Balanced Salt Solution (HBSS) containing 25 mM N-[2-hydroxyethyl]-piperazine-N′-[2-ethanesulfonic acid] (HEPES) buffer, pH 7.4 at 37° C. Due to variations in solubilities, various concentrations of the different MCFA sodium salts and various apical buffers were used as shown in Table 1. In all cases the basolateral chamber contained regular HBSS+HEPES.
# After removing the cell culture medium, the monolayers were placed in wells containing prewarmed HBSS (37° C.); 1 ml apically and 2 ml basolaterally. Monolayers were incubated at 37° C. for 30 mins. Then at time zero, apical HBSS was replaced with the relevant apical test solution containing the radiolabelled compounds with and without the enhancer compound. […] The plates were placed on an orbital shaker in an incubator (37° C.). Transport across the monolayers was followed by basolateral sampling (1 ml) at 30 min. intervals up to 120 mins. […] Apical stock radioactivity was determined by taking 10 μl samples at t=0 and t=120 mins. […] Mean values for ^3H-TRH concentrations were calculated for the apical and basolateral solutions at each time point.
# Caco-2 monolayers [2] = assay: TEER of Caco-2 monolayers with MCFA sodium salts and 3H-TRH; format: cell-based; settings: Caco-2 monolayers over 2 hours, sodium salts with 3H-TRH, concentrations of Table 1
# Experimental: as §1, §2
# After removing the cell culture medium, the monolayers were placed in wells containing prewarmed HBSS (37° C.); 1 ml apically and 2 ml basolaterally. Monolayers were incubated at 37° C. for 30 mins. Then at time zero, apical HBSS was replaced with the relevant apical test solution containing the radiolabelled compounds with and without the enhancer compound. […] The plates were placed on an orbital shaker in an incubator (37° C.). Transport across the monolayers was followed by basolateral sampling (1 ml) at 30 min. intervals up to 120 mins. At each 30 min. interval each insert was transferred to a new well containing 2 ml fresh prewarmed HBSS. Apical stock radioactivity was determined by taking 10 μl samples at t=0 and t=120 mins. […] Mean values for ^3H-TRH concentrations were calculated for the apical and basolateral solutions at each time point.
# [3] = Closed loop rat model, intraduodenal TRH with enhancer, serum TRH; format: in vivo; settings: interduodenal bolus 500 or 1000 μg TRH with 35 mg enhancer
# Experimental: Male Wistar rats (weight range 250 g-350 g) were anaesthetized with ketamine hydrochloride/acepromazine. […] All intraduodenal dose volumes (for samples and control) were 1 ml/kg. The proximal end of the segment was ligated and the loop was sprayed with isotonic saline (37° C.) to provide moisture and then replaced in the abdominal cavity avoiding distension. The incision was closed with surgical clips. A group of animals were administered TRH in PBS (100 μg in 0.2 ml) by subcutaneous injection as a reference.
# [4] = system: plasma anti-factor Xa activity; assay: Intraduodenal LMWH with enhancers in rats (open loop), plasma anti-factor Xa; format: in vivo, rat; settings: intraduodenal 1000 IU, absence of enhancer
# [5] = Closed-loop rat segment, intraileal USP heparin with enhancer, APTT response; format: in vivo; settings: USP heparin 1000 iu, sodium caprate 10 and 35 mg
# Description: APTT measurements were taken at various time points.
# [6] = system: plasma anti-factor Xa activity; assay: Dog study of oral heparin/enhancer tablets, anti-factor Xa and clinical assessment; format: in vivo; settings: dogs, IR formulations, equivalent dose of heparin
# Experimental: Tablets from batches 3, 7 and 15 in Tables 5 and 6 above were dosed orally to groups of five dogs in a single dose crossover study. […] Blood samples for anti-factor Xa analysis were collected from the jugular vein at various time points.
# [7] = system: plasma anti-factor Xa activity; assay: Closed-loop rat segment, intraileal USP heparin with enhancer, plasma anti-factor Xa; settings: USP heparin 1000 iu
# Experimental: The procedure carried out in Example 1 (a) above was repeated using USP heparin in place of TRH and dosing intraileally rather than intraduodenally. A mid-line incision was made in the abdomen and the distal end of the ileum located (about 10 cm proximal to the ileo-caecal junction). 7-9 cm of tissue was isolated and the distal end ligated, taking care to avoid damage to surrounding blood vessels. Heparin absorption as indicated by […] (APTT) response was measured by placing a drop of whole blood (freshly sampled from the tail artery) on the test cartridge of Biotrack 512 coagulation monitor. APTT measurements were taken at various time points.
# Citrated blood samples were centrifuged at 3000 rpm for 15 mins. to obtain plasma for anti-factor Xa analysis. […] The control in each case is a solution of the same heparin concentration containing no enhancer.
# [8] = oral conventional forms, cited from earlier work
compound,measurement,setting,value
"CCNC(=O)[C@@H]1CCCN1C(=O)[C@H](CCCNC(=N)N)NC(=O)[C@H](CC(C)C)NC(=O)[C@@H](CC(C)C)NC(=O)[C@H](Cc1ccc(O)cc1)NC(=O)[C@H](CO)NC(=O)[C@H](Cc1c[nH]c2ccccc12)NC(=O)[C@H](Cc1c[nH]cn1)NC(=O)[C@@H]1CCC(=O)N1 [leuprolide, leuprolide acetate]",bioavailability,in vivo,8%
same,systemic delivery of leuprolide,"in vivo; dog, in vivo",negligible
CCCCCCCCCCCCCC(=O)[O-].[Na+] [Batch C14],effect on permeability constant Papp for 3H-TRH compared to the control,Caco-2 monolayers [1],considerable increases
same,effect on TEER compared to the control,Caco-2 monolayers [2],minimal reduction in TEER
"CCCCCCCC(=O)[O-].[Na+] [Batch C8, sodium caprylate]",serum levels of TRH over the control TRH solution,[3],significantly increases
CCCCCCCCCCCCCCCCCC(=O)[O-].[Na+] [Batch C18],effect on TEER compared to the control,Caco-2 monolayers [2],minimal reduction in TEER
parnaparin sodium [LMWH],systemic delivery of LMWH,[4],relatively poor
"CCCCCCCCCCCC(=O)[O-].[Na+] [Batch C12, sodium laurate]",effect on permeability constant Papp for 3H-TRH compared to the control,Caco-2 monolayers [1],considerable increases
same,effect on TEER compared to the control,Caco-2 monolayers [2],some cell damage (reduction in TEER)
"CCCCCCCCCC(=O)[O-].[Na+] [Batch C10, sodium caprate]",serum levels of TRH over the control TRH solution,[3],significantly increases
same,heparin absorption by APTT response vs control heparin solution,[5],significant increase in absorption
same,effect on permeability constant Papp for 3H-TRH compared to the control,Caco-2 monolayers [1],considerable increases
same,"anti-factor Xa response, NaC10 relative to NaC8 enhancer",[6],larger anti-factor Xa response
same,effect on TEER compared to the control,Caco-2 monolayers [2],minimal reduction in TEER
same,anti-factor Xa activity relative to control heparin solution,[7]; enhancer 10 mg dose,significant increase
same,anti-factor Xa activity relative to control heparin solution,[7]; enhancer 35 mg dose,significant increase
NCCCC(O)(P(=O)(O)O)P(=O)(O)O [alendronate],further share of the dose absorbed excreted in the urine,[8]; over the next 64 hours,5%
same,share of the dose absorbed excreted in the urine,[8]; within 8 hours,40%
